Experimental data taken from publication PMC9240354, “Pharmacokinetics, Pharmacodynamics and Antiviral Efficacy of the MEK Inhibitor Zapnometinib in Animal Models and in Humans” (Frontiers in Pharmacology, 2022).
Converted amounts (≈) assume the structure as drawn. Where two headings read alike, the source gives them in different places.

Legend:
[1] = set-up: method as in Koch-Heier et al., manuscript in preparation; settings: mice, 75 mg/kg; previously unpublished preclinical data; ref Koch-Heier et al., manuscript in preparation; cited from earlier work
MEK [2] = test: MEK inhibition in PBMCs of treated beagle dogs (pERK/ERK, Wes); format: in vivo; settings: formulation 3, plasma concentrations until Cmax vs ERK phosphorylation in PBMCs
Protocol: PBMCs were isolated from the same blood samples (30 µl mouse blood, 50 µl hamster blood, or 1 ml dog blood) used for pharmacokinetic analysis. After plasma separation as described in the section above (Blood sampling and preparation of plasma samples), the remaining red blood cells were lysed by adding 1 volume of red blood cell (RBC) lysis buffer (Thermo Fisher Scientific, Waltham, MA, United States) (300 µl for mice, 500 µl for hamster, and 10 ml for dogs). The samples were incubated for 15 min at RT and centrifuged at 500 x g for 5 min (RT). The supernatant was removed completely, and the pellet was washed twice with PBS. The PBMC cell pellets were store at −80°C until further analysis. […]
The pharmacodynamic assessment was performed using the Wes™ (Simple Western™) system which uses capillary electrophoresis to separate, identify and quantify proteins of interest. A chemiluminescence signal for each identified protein is detected and the area under the peak is calculated, which is then used for quantification. The 0.1x Sample Buffer, 400 mM dithiothreitol (DTT) solution, 5x Fluorescence Master Mix, and the Biotinylated Ladder (ProteinSimple®, Abingdon, Oxford, United Kingdom) were prepared according to manufacturer’s instructions. […] The anti-rabbit secondary antibody (Cat# DM-001) was also purchased from ProteinSimple® and was ready to use. […]

[3] = Syrian hamsters
MEK1/2 = test: phosphorylation of MEK and ERK in PMA-stimulated human PBMCs (Wes); settings: 50 µg/ml 1 h, then 400 nM PMA 30 min
Protocol: PBMCs from healthy donors were isolated, treated with zapnometinib, stimulated with Phorbol-12-Mystrat-13-Acetat (PMA) and analyzed for the reduction of MEK and ERK phosphorylation.
PBMCs of 30 ml human blood were isolated using SepMate^TM tubes (Stemcell Technologies, Vancouver, Canada) by density gradient centrifugation according to manufacturer’s instructions. The PBMCs were then cultured in the plasma and treated with 50 µg/ml zapnometinib or DMSO for 1 h at 37°C and 5% CO2. Afterwards, the PBMCs were stimulated with 400 nM PMA (Sigma-Aldrich, St. Louis, Missouri, USA) for 30 minutes at 37°C and 5% CO2. After stimulation, the cells were washed twice with PBS and centrifuged 8 minutes at 300 x g at RT. The cells were then lysed in 1x RIPA buffer and analyzed with Wes™ for phosphorylation of ERK and MEK using specific antibodies as described in the Pharmacodynamic assessment to determine level of MEK inhibition section. […]
PBMCs of healthy human volunteers were treated for 1 h with 50 µg/ml zapnometinib or DMSO as solvent control and subsequently stimulated for 30 minutes with 400 nM PMA. Cell lysates of the PBMCs were then analyzed with Wes™ for phosphorylated and total protein, and the ratio was used to calculate the phosphorylation levels. […]

MEK [4] = test: MEK inhibition in PBMCs of healthy human volunteers (pERK/ERK, Wes); format: in vivo
Protocol: PBMCs were isolated from the same blood samples (30 µl mouse blood, 50 µl hamster blood, or 1 ml dog blood) used for pharmacokinetic analysis. After plasma separation as described in the section above (Blood sampling and preparation of plasma samples), the remaining red blood cells were lysed by adding 1 volume of red blood cell (RBC) lysis buffer (Thermo Fisher Scientific, Waltham, MA, United States) (300 µl for mice, 500 µl for hamster, and 10 ml for dogs). The samples were incubated for 15 min at RT and centrifuged at 500 x g for 5 min (RT). The supernatant was removed completely, and the pellet was washed twice with PBS. The PBMC cell pellets were store at −80°C until further analysis. PBMCs of 8 ml human blood were isolated using CPT^TM tubes. After a 20-min centrifugation at 1,650 x g at room temperature, the plasma was collected for PK analysis as described in the section above (Blood sampling and preparation of plasma samples). The PBMC layer was collected in a 15 ml tube (Greiner Bio-One, Frickenhausen, Germany), and washed twice with PBS by centrifugation at 300 x g for 10 min at RT. The PBMC pellets were store at −80°C until further PD assessment.
(§1) The pharmacodynamic assessment was performed using the Wes™ (Simple Western™) system which uses capillary electrophoresis to separate, identify and quantify proteins of interest. A chemiluminescence signal for each identified protein is detected and the area under the peak is calculated, which is then used for quantification. The 0.1x Sample Buffer, 400 mM dithiothreitol (DTT) solution, 5x Fluorescence Master Mix, and the Biotinylated Ladder (ProteinSimple®, Abingdon, Oxford, United Kingdom) were prepared according to manufacturer’s instructions. For all species, PBMCs were lysed in 1x radioimmunoprecipitation assay (RIPA) buffer (containing 0.24% (w/v) tris base (Sigma-Aldrich, St. Louis, MO, United States), 0.88% (w/v) NaCl (Carl Roth GmbH, Karlsruhe, Germany), 0.2% (v/v) 500 mM EDTA (Sigma-Aldrich), 1% (v/v) Triton X-100 (Sigma-Aldrich), 0.5% (w/v) sodium deoxycholate (Sigma-Aldrich), 0.1% (w/v) sodium dodecyl sulfate (SDS) (Carl Roth), 10% (v/v) glycerol (Carl Roth), 0.05% phenylmethyl sulfonyl fluoride (PMSF) (Carl Roth), 0.01% Benzonase® Nuclease (Sigma-Aldrich), protease inhibitor cocktail (Roche, Basel, Switzerland), and phosphatase inhibitor cocktail (Roche) in H2O), further diluted with 0.1x Sample Buffer (ProteinSimple®, Abingdon, Oxford, United Kingdom) to adjust the protein concentration to 1 μg/μl. Then the 5x Fluorescence Master Mix in DTT (ProteinSimple®) was added, and the samples were denatured for 5 min at 95°C, loaded onto the assay plate and analyzed using specific antibodies. […] The anti-rabbit secondary antibody (Cat# DM-001) was also purchased from ProteinSimple® and was ready to use. Data were analyzed with Compass software for simple western (ProteinSimple®). Using the ratio of pERK to ERK of each sample compared to control (pre-dose), the level of ERK phosphorylation was calculated and then converted into the percentage level of MEK inhibition.

MEK [5] = test: MEK inhibition in PBMCs, summary regardless of species; format: in vivo, mice, hamsters, dogs, human
Protocol: as §1

in vivo [6] = settings: C57BL/6, mouse
[7] = test system: influenza A and B viruses; set-up: method as in Laure et al., 2020; settings: in vitro, ref Laure et al., 2020, read-out: EC50 antiviral efficacy; cited from earlier work
in vivo [8] = settings: Syrian, hamster; for AUC(0-t) / Cmax / Tmax: po
[9] = single oral dose 100 mg, vs pre-dose
[10] = single oral dose 300 mg, vs pre-dose
[11] = single oral dose 600 mg, vs pre-dose
[12] = single oral dose 900 mg, vs pre-dose

## O=C(O)c1ccc(F)c(F)c1Nc1ccc(I)cc1Cl [zapnometinib, 2-(2-Chloro-4-Iodophenylamino)-N-3,4-Difluoro benzoic acid]
[1]
  tolerability: well tolerated
MEK [2]
  IC50 (plasma concentration reducing ERK phosphorylation by 50% compared to pre-dose): 12.5 µg/mL (≈ 30.5 µM)
[3]; 15 mg/kg BID p.o.
  mean plasma concentration at 24 h: 1 ± 0.2 µg/mL
[3]; 15 mg/kg BID p.o., before second dose
  plasma concentration 12 h after the first treatment: 2 ± 0.1 µg/mL
[3]; 60 mg/kg OD p.o.
  mean plasma concentration at 24 h: 0.2 ± 0.6 µg/mL
MEK1/2
  phosphorylation of MEK: directly prevents the phosphorylation of MEK
MEK [4]; doses 100, 300 and 600 mg taken together
  MEK inhibition at Cmax: approximately 60%
MEK [4]; [9]
  MEK inhibition at 24 h: 35 ± 25%
  MEK inhibition at Cmax: 63 ± 8%
MEK [4]; [10]
  MEK inhibition at 24 h: 41 ± 26%
  MEK inhibition at Cmax: 61 ± 18%
MEK [4]; [11]
  MEK inhibition at 24 h: 37 ± 20%
  MEK inhibition at Cmax: 64 ± 22%
MEK [4]; [12]
  MEK inhibition at 24 h: 26 ± 26%
  MEK inhibition at Cmax: 79 ± 20%
MEK [5]; across all species
  concentration to inhibit 50% of PBMC MEK activity: approximately 10 μg/ml
MEK [5]; regardless of species
  MEK inhibition in PBMCs, maximum observed: up to 80%
MEK [5]; regardless of species, almost all zapnometinib eliminated from plasma
  MEK inhibition maintained 24 h after dosing: up to 50%
In vivo [6]
  half-life: 480 min
In vivo [6]; po, 25 mg/kg
  AUC: 1390 µg·h/mL
  Cmax: 69 ± 24 µg/mL
In vivo [6]; po, 25 mg/kg, Tmax,1, mice, 25 mg/kg p.o., after first treatment
  Tmax: 2 h
In vivo [6]; po, 25 mg/kg, Tmax,2, mice, 25 mg/kg p.o. twice, second dose at 8 h
  Tmax: 10 h
[7]
  EC50: 4.2 to 6.4 µM
In vivo [8]
  half-life: 480 min
In vivo [8]; 15 mg/kg
  AUC(0-t): 121 ± 4 µg·h/mL
  Cmax: 15000 ± 1000 ng/mL
  Tmax: 3 ± 1 h
In vivo [8]; 60 mg/kg
  AUC(0-t): 623 ± 87 µg·h/mL
  Cmax: 61000 ± 2000 ng/mL
  Tmax: 3 ± 1 h
